# Reference: ChEMBL document CHEMBL1158104, “Mooloolabenes A-E, norsesterterpenes from the Australian sponge Hyattella intestinalis” (J Nat Prod, 2006)
# Tested on: P388
# Assay: Cytotoxicity against mouse P388 cells
# Assay type: functional, cell-based
row,SMILES,IC50 [µg/mL]
1,CC(=O)O[C@@H]1OC=C2CC[C@@H]3[C@](C)(CC[C@@H]4[C@@]5(C)CCCC(C)(C)[C@@H]5CC[C@@]34C=O)[C@H]21 [MOOLOOLALDEHYDE],3
2,CC(=O)O[C@@H]1OCC2=CC[C@H]3C4=C[C@@H](OC(C)=O)[C@H]5C(C)(C)CCC[C@]5(C)[C@H]4CC[C@]3(C)[C@H]21 [MOOLOOLABENE D],3
3,CC1(C)CCC[C@]2(C)[C@H]3CC[C@]4(C)[C@H](C=O)C(C=O)=CC[C@H]4C3=CC[C@@H]12 [MOOLOOLABENE B],1.2
4,CC(=O)O[C@@H]1OCC2=CC[C@H]3C4=CC[C@H]5C(C)(C)CCC[C@]5(C)[C@H]4CC[C@]3(C)[C@H]21 [MOOLOOLABENE E],3
5,CC1(C)CCC[C@]2(C)[C@H]3CC[C@]4(C)[C@@H](C=O)C(C=O)=CC[C@H]4C3=CC[C@@H]12 [MOOLOOLABENE A],0.8
6,CC(=O)OC[C@@]1(C)CCC[C@]2(C)[C@H]3CC[C@]4(C)[C@@H](C=O)C(C=O)=CC[C@H]4C3=CC[C@@H]12 [MOOLOOLABENE C],3
